Results taken from article PMC9369154, “Molecular Basis for Luteolin as a Natural TatD DNase Inhibitor in Trueperella pyogenes” (International Journal of Molecular Sciences, 2022).
pKd: −log10 of the molar value.

Key:
TatD825 = target: T1, TatD825 (Trueperella pyogenes, UniProt A0ABV3NC31); experiment: SPR (Biacore T200, NTA chip, […] binding model); DNase gel assay with Mg2+ also shows inhibition
T1 construct: gene V3M73_06995; His-TatD 825 recombinant protein expressed in E. coli BL21 (DE3)

TatD960 = target: T2, TatD960 (Trueperella pyogenes, UniProt A0ABV3N8R6); experiment: as above
T2 construct: gene V3M73_00540; His-TatD 960 recombinant protein expressed in E. coli BL21 (DE3)

Work on `O=c1cc(-c2ccc(O)c(O)c2)oc2cc(O)cc(O)c12` [luteolin, 3′,4′,5,7-tetrahydroxyflavone] yielded a pKd (TatD825) of 5.25 and a pKd (TatD960) of 5.20.
